Assay results published in patent publication US6331642A, “Vitamin D3 analogs” (Hoffmann-La Roche Inc., priority 2000, dated 2001).
Read-outs that look alike come from different tables or passages of the source.

How the values were obtained:
MCF-7 cells = assay: Pulse-exposure experiments, soft agar colony assay; format: cell-based; conditions: 4 days of exposure, 10^-7, colonies counted day 14
Method: Pulse-Exposure Experiments. The MCF-7 cells were incubated in liquid culture with 10^-7 of 1,25(OH)2 D3 or 1,25(OH)2 -16-ene-5,6-trans-D3 for various duration. After incubation, these cells were carefully washed twice with PBS and viable cells were counted and plated into 24-well plates for soft agar colony assay, as previously described.
Pulse-Exposure Experiments. […] The MCF-7 cells were exposed to either 1,25(OH)2 -16-ene-5,6-trans-D3 or 1,25(OH)2 D3 for various durations, washed thoroughly, plated in soft agar, and colony numbers were enumerated on day 14 of culture.

seminal vesicles = assay: Antiandrogenic activity in castrated testosterone stimulated hamsters, seminal vesicles; format: in vivo, male Syrian hamsters
Method: 1,25(OH)2 -16-ene-5,6-trans D3 was evaluated for antiandrogenic activity in castrated, testosterone stimulated male Syrian hamsters.
[…] Both compounds were administered in a vehicle of 0.2 ml sesame oil each. Necropsy was performed on day 15. The prostate and seminal vesicles were removed, blotted and weighed. Data were analyzed for statistical significance using the Student's t-test and are expressed as percent inhibition of stimulated response.

p21^waf1 = assay: Western blot analysis, p21^waf1 in MCF-7 cells; format: cell-based; conditions: Homo sapiens, read-out: increase in expression of p21^waf1
Method: (§1) Western Blot Analysis. Cells were washed twice with PBS, suspended in Lysis buffer (50 mM Tris Ph 8.0, 150 mM NaCl, 0.1% SDS, 0.5% sodium deoxycholate, 1% NP40, 100 μg/ml phenylmethylsulfonyl fluoride, 2 μg/ml aprotinin, 1 μg/ml pepstatin and 10 μg/ml leupeptin), and placed on ice for 30 minutes. After centrifugation at 15,000 g for 20 minutes at 4° C., the supernatant was collected. Protein concentrations were quantitated. Whole lysates (15 μg) were resolved by 15% sodium dodecyl sulphate polyacrylamide gel, were transferred to an immobilon polyvinylidene difuride membrane and were probed with anti-p27^kip1 rabbit polyclonal antibody and anti-Actin murine monoclonal antibody. Blots were developed.
(§2) Western Blot Analysis. The cyclin dependent kinase inhibitors known as p21^waf1 and p27^kip1 are able to inhibit the activity of cyclin kinase and thus slow the progression for the cells through the cell cycle. […] Exposure for one day to 1,25(OH)2 -16-ene-5,6-trans-D3 (10^-7 M) increased expression of p21^waf1 and p27^kip1 by about 3.2-3.5 fold, whereas culture with 1,25(OH)2 D3 (10^-7 M) increased expression of p21^waf1 and p27^kip1 about 1.6-1.8 fold. […] 1,25(OH)2 D3 (10^-7 M, 3 days) increased expression of p21^waf1 and p27^kip1 by 4.8 fold and 3.3 fold, respectively.

hTERT mRNA = hTERT mRNA expression (RT-PCR) in HL-60 cells; format: cell-based, human; conditions: for IC (almost complete): Homo sapiens, read-out: concentration giving almost complete inhibition of hTERT mRNA expression
Method: (§3) Telomerase Activity. To detect the relative telomerase activity, telomeric repeat amplification protocol (TRAP) assays were performed. For human telomerase reverse transcriptase (hTERT), total RNAs were isolated from HL-cells which were treated with either 1,25(OH)2 D3 or 1,25(OH)2 -16-ene-5,6-trans-D3 (10^- 9 10^-8, and 10^-7 M) for 4 days with a monophasic solution of phenol and guanidine isothiocyanate. RT-PCR was performed with 1 μg of total RNA and random hexamer primers. cDNA was amplified using primers specific for the hTERT gene or the GAPDH gene, which was used as a control. The primers used for hTERT were: 5'-[…]-3' (sense) (SEQ ID NO: 1), and 5'-GGATGAAGCGGAGTCTGGA-3'-(antisense) (SEQ ID NO: 2). The thermal cycles were 94° C. for 90 seconds, followed by 33 cycles of 95° C. for 20 seconds, 68° C. for 40 seconds, and 72° C. for 30 seconds. Primers for the GAPDH gene were: 5'-CCATGGAGAAGGCTGGGG-3' (sense) (SEQ ID NO: 3), and 5'-[…]-3' (antisense) (SEQ ID NO: 4). Conditions for GAPDH amplifications were: 94° C. for 2 minutes, 26 cycles of 94° C. for 30 seconds, 62° C. for 40 seconds, 72° C. for 60 seconds, followed by 72° C. for 4 minutes. PCR products were electrophoresed on 1% agarose gel and stained with ethidium bromide.
The effects of vitamin D3 analogs on hTERT expression in HL-60 cells was evaluated using RT-PCR.

telomerase = assay: Telomerase activity (TRAP assay) in HL-60 cells; format: cell-based; conditions: 4 days
Method: as §3, with “PCR products were electrophoresed on 1% agarose gel and stained with ethidium bromide.” left out
Telomerase Activity. The effect of 1,25(OH)2 -16-ene-5,6-trans-D3and 1,25(OH)2 D3 (10^-9 -10^-7 M, 4 days) on telomerase activity was evaluated using the TRAP assay.

left femur (distal half) = assay: Total femoral bone calcium in ovariectomized rats; format: in vivo, adult female rats; conditions: ovx rats, 19 days, text: calcium in mg/distal half femur, Ovx/Veh. 10.58
Method: Three month old adult female rats were subjected to bilateral ovariectomy or sham surgery. After a week of acclimatization the animals were weight grouped and treated by oral gavage at 1 mg/kg of specified concentration. Dose volume was calculated weekly using the group average body weight. Dosing started 17 days post surgery and continued for 19 days. On the 20th day animals were euthanized by carbon dioxide inhalation and left femurs excised.
At necropsy the left femurs from all groups were excised and soft tissue removed. The bones were measured and cut in half at mid-diaphysis; then the distal portion was cut in half longitudinally after removal of the epiphysis. The bone marrow was flushed out and the calcium was extracted by immersion in 5% TCA. The calcium content of TCA extracts was determined by using quantitative, colorimetric determination of calcium. The data were expressed as mean total bone calcium in mg/distal half femur (DHF)±serum.

p27^kip1 [1] = assay: Western blot analysis, p27^kip1 in MCF-7 cells; format: cell-based; conditions: Homo sapiens, read-out: increase in expression of p27^kip1
Method: as §1, §2

[2] = Serum calcium levels in ovariectomized rats; format: in vivo, adult female rats; conditions: ovx rats, Ovx/Veh. 10.41
Method: Three month old adult female rats were subjected to bilateral ovariectomy or sham surgery. […] Dose volume was calculated weekly using the group average body weight. Dosing started 17 days post surgery and continued for 19 days. On the 20th day animals were euthanized by carbon dioxide inhalation and left femurs excised.
Blood (1.5 ml) was collected from each animal by orbital puncture under ether anesthesia on day 7 and day 18 of dosing. Blood was collected into serum separator tubes, centrifuged at 2000 rpm for 15 min. and then serum aliquoted for calcium determinations. Serum calcium was determined by colorimetric assay.
For a verification of the effect of ovariectomy on bone calcium, the sham and ovx vehicle groups were compared using student's t-test. The ovx groups were compared by one-way analysis of variance (ANOVA), followed by Fisher's LSD to compare each treatment group to vehicle when the overall effect was statistically significant.

p27^kip1 [3] = assay: Western blot analysis, p27^kip1 in HL-60 cells; format: cell-based
Method: Western Blot Analysis. Cells were washed twice with PBS, suspended in Lysis buffer (50 mM Tris Ph 8.0, 150 mM NaCl, 0.1% SDS, 0.5% sodium deoxycholate, 1% NP40, 100 μg/ml phenylmethylsulfonyl fluoride, 2 μg/ml aprotinin, 1 μg/ml pepstatin and 10 μg/ml leupeptin), and placed on ice for 30 minutes. After centrifugation at 15,000 g for 20 minutes at 4° C., the supernatant was collected. Protein concentrations were quantitated. […] Blots were developed.
The dose-dependent effect of the vitamin D3 compounds on expression of p27^kip1 HL-60 cells was examined.

Compound	clonogenic cells inhibited (MCF-7 cells)	fold induction at 0.1 µM (p21^waf1; MCF7, 24 h)	fold induction at 0.1 µM (p21^waf1; MCF7, 72 h)	expression of hTERT mRNA (hTERT mRNA; HL-60 cells, 4 days)	fold induction at 0.1 µM (p27^kip1 [1]; MCF7, 24 h)	fold induction at 0.1 µM (p27^kip1 [1]; MCF7, 72 h)	expression of p27^kip1 (p27^kip1 [3])	other results
C=C1/C(=C\C=C2/CCC[C@]3(C)[C@@H]([C@H](C)CCCC(C)(C)O)CC[C@@H]23)C[C@@H](O)C[C@@H]1O [1,25(OH)2 D3, reference compound]	thirty	1.6 to 1.8	4.8	inhibited the expression of hTERT mRNA in a dose-dependent manner	1.6 to 1.8	3.3	up-regulated	androgen-induced hypertrophy of the seminal vesicles (seminal vesicles; non-toxic doses (1 μg)): inactive; IC (almost complete) (hTERT mRNA; HL-60, 96 h): 0.1 µM; telomerase activity (telomerase; 10^-7 M): markedly decreased; Femur CA/100 g BW (left femur (distal half); 0.500 μg/kg oral): 11.91 /100 g BW; Serum Calcium ([2]; dose printed 0500 μg/kg oral): 11.74 mg/dL; levels of p27^kip1 (p27^kip1 [3]; 10^-8-10^-7 M): increased prominently
C=C1/C(=C/C=C2\CCC[C@]3(C)C([C@H](C)CCCC(C)(C)O)=CC[C@@H]23)C[C@@H](O)C[C@@H]1O [1,25(OH)2-16-ene-5,6-trans-D3, 1,25-Dihydroxy-16-ene-5,6-trans-cholecalciferol]	Approximately forty	3.2 to 3.5	2.8	inhibited the expression of hTERT mRNA in a dose-dependent manner	3.2 to 3.5	3.4	up-regulated	androgen-induced hypertrophy of the seminal vesicles (seminal vesicles; castrated, testosterone stimulated hamsters): substantially suppressed; Seminal vesicles Inhib. (percent inhibition of stimulated response) (seminal vesicles; testosterone + 0.1 μg compound s.c. daily, 14 days): 48%; Seminal vesicles weight (seminal vesicles; testosterone + 0.1 μg compound s.c. daily, 14 days, mg ± SEM): 71 ± 1 mg; IC (almost complete) (hTERT mRNA; 96 h, HL-60 cells, 4 days): 0.01 µM; telomerase activity (telomerase; 10^-9 M): markedly decreased; Femur CA/100 g BW (left femur (distal half); 2.000 μg/kg oral): 11.49 /100 g BW; Serum Calcium ([2]; 2.000 μg/kg oral): 9.98 mg/dL; expression of p27^kip1 (p27^kip1 [3]; 4 days, 10^-9 M): markedly increased
